Assay results reported in US11207322B2, “Method and composition related to combination therapy for addiction” (Board of Regents, The University of Texas System, priority 2017, dated 2021).
“Also recorded” adds a separate entry of the source.

How the values were obtained:
5-HT2C receptors = details: in vivo; cited from earlier work
DA D3 receptor [1] = biological target: T1, DA D3 receptor (Homo sapiens, UniProt P35462); details: in vivo; cited from earlier work
[2] = test system: rhesus and cynomolgus monkeys; details: in vivo; cited from earlier work
DA D3 receptor [3] = biological target: T1, DA D3 receptor; details: cited from earlier work
humans [4] = details: cited from earlier work
[5] = test system: rhesus monkeys responding for 0.032 mg/kg/inf cocaine; assay: cocaine self-administration under a progressive ratio (PR) schedule; type: in vivo, rhesus monkey; details: for effect on PR responding for cocaine (reinforcing effectiveness of cocaine): 0.032 mg/kg/inf cocaine, 4 rhesus monkeys (2 male, 2 female), acute
[6] = test system: rhesus monkeys, responding reinstated by cocaine; assay: cocaine-primed reinstatement of extinguished responding for cocaine; type: in vivo, rhesus monkey; details: 0.32 mg/kg cocaine prime; 4 rhesus monkeys
Description: Reinstatement of responding for cocaine.
Experimental design. Monkeys will respond for 0.032 mg/kg/inf cocaine under a FR30:TO180-sec schedule of reinforcement during daily 90-min sessions. During extinction, all stimulus lights will be extinguished with responding being recorded but having no scheduled consequence. During reinstatement tests, the drug-associated stimuli (i.e., the green and red stimulus lights) will be presented according to an FR30:TO180-sec schedule but no infusions will be delivered. Priming infusions of cocaine or saline will be injected directly into the vascular access port (followed by a 5-ml saline flush) 5 min before the start of the session.
The acute effects of lorcaserin (0.1-3.2 mg/kg; SC; 15 min PT) and buspirone (0.1-3.2 mg/kg; SC; 15 min PT) alone will be studied prior to evaluating mixtures. Because the nature of drug-drug interactions can vary depending upon the composition of the mixture, lorcaserin and buspirone will be evaluated over at least three fixed-dose pairs of at least three fixed-ratios (i.e., 3:1, 1:1, and 1:3), using the strategy described above. Mixtures will be based on the effects of lorcaserin and buspirone alone and customized to individual monkeys. […] Additional fixed-ratios mixtures (10:1 or 1:10) will be evaluated if significant, non-additive interactions are observed with either 3:1 or 1:3 ratios, respectively. […]

[7] = test system: rhesus monkeys responding for 0.032 mg/kg/inf cocaine; details: cited from earlier work; for effectiveness on cocaine self-administration with daily dosing: administered daily for 10-14 days
[8] = e.g., valvulopathies; cited from earlier work
humans [9] = details: cited from earlier work; remark: listed apart in the source
obese adults = details: in vivo; cited from earlier work
[10] = biological target: T2, 5-HT2C over 5-HT2B receptors (Homo sapiens, UniProt P28335); details: cited from earlier work
T2 construct: expressed in transfected cells
T2 sequence (P28335 33-458): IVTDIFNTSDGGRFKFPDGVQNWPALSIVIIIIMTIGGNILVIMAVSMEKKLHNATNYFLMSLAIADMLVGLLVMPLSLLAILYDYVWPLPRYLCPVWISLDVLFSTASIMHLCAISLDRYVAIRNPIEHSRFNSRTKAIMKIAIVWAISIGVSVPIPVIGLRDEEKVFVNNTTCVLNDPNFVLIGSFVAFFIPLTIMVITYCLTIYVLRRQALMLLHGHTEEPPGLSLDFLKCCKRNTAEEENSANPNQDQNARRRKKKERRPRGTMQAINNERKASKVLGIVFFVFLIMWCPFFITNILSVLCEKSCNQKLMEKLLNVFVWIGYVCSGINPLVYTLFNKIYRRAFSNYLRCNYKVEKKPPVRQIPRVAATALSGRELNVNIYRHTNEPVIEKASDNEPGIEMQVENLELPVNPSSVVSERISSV

5-HT2A receptor = details: doses comparable to those required to reduce body weight in rats; cited from earlier work
recreational drug users = details: 20-60 mg; cited from earlier work
[11] = biological target: T3, 5-HT2C over 5-HT2A receptors (Homo sapiens, UniProt P28335); details: cited from earlier work
T3 construct: expressed in transfected cells
T3 sequence (P28335 33-458): T2 sequence (P28335 33-458)

[12] = functional assays, transfected cells

T1 sequence (P35462 whole entry): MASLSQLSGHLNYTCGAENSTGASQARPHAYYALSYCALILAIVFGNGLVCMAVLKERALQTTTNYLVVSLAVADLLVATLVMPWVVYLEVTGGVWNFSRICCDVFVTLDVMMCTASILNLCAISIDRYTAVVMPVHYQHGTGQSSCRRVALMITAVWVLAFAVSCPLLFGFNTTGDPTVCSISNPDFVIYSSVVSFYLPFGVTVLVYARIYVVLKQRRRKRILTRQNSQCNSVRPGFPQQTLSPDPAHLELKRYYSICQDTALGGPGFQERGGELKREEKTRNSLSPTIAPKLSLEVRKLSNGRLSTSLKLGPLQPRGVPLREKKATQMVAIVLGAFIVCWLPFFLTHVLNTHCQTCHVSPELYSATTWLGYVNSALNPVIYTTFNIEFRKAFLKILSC

Clc1cccc(COc2cncc(N3CCNCC3)n2)c1 [CP-809,101]
cocaine self-administration and/or reinstatement (5-HT2C receptors): decrease cocaine self-administration and/or inhibit the reinstatement of a response previously reinforced by cocaine

Clc1cncc(N2CCNCC2)n1 [MK 212]
cocaine self-administration and/or reinstatement (5-HT2C receptors): decrease cocaine self-administration and/or inhibit the reinstatement of a response previously reinforced by cocaine

C[C@H](N)Cn1ccc2cc(F)c(Cl)cc21 [Ro 60-0175]
cocaine self-administration and/or reinstatement (5-HT2C receptors): decrease cocaine self-administration and/or inhibit the reinstatement of a response previously reinforced by cocaine

c1cc2c3c(c1)[C@H]1CCC[C@H]1N3CCNC2 [WAY-163909]
cocaine self-administration and/or reinstatement (5-HT2C receptors): decrease cocaine self-administration and/or inhibit the reinstatement of a response previously reinforced by cocaine

O=C1CC2(CCCC2)CC(=O)N1CCCCN1CCN(c2ncccn2)CC1 [buspirone]
dose needed for clinically relevant DA D3 receptor occupancy relative to 60 mg maximal approved dose (DA D3 receptor [1]): at least 3 fold | cocaine self-administration in monkeys (literature) [2]: reliably decreased cocaine self-administration | selective binding profile at DA D3 receptors (DA D3 receptor [3]): 5-70 fold | relative potency at 5-HT1A, DA D3, and DA D4 receptors (DA D3 receptor [3]; recent studies): roughly equipotent | reinforcing effects of cocaine in a human laboratory study (humans [4]; 30 mg): failed to alter the reinforcing effects of cocaine | effect on PR responding for cocaine (reinforcing effectiveness of cocaine) [5]: inhibited responding in a dose-dependent manner; also recorded: dose-dependently decreases the reinforcing effectiveness of cocaine | potency in males relative to females at decreasing cocaine self-administration ([5]; PR schedule, 2 male and 2 female monkeys, more potent in males): ~10 fold | effectiveness of cocaine to reinstate extinguished responding for cocaine [6]: dose-dependently decreases | effectiveness on cocaine self-administration with daily dosing [7]: retain their effectiveness to reduce cocaine self-administration | cardiovascular complications [8]: devoid of serious cardiovascular complications | sex-related difference in promoting abstinence (humans [9]; 60 mg dose): more effective at promoting abstinence in males than in females | abstinence from cocaine use, multi-site randomized double-blind placebo-controlled pilot study (humans [9]; 60 mg): failed to prolong abstinence from cocaine use

CN1CCc2cc(Cl)c(O)cc2[C@H]2c3ccccc3CC[C@@H]21 [ecopipam]
subjective or reinforcing effects of cocaine in humans (humans [4]; doses that did not produce sedation): failed to alter the subjective or reinforcing effects of cocaine

C[C@@H](Cc1ccccc1)NC(=O)[C@@H](N)CCCCN [lisdexamfetamine]
cocaine self-administration in monkeys (literature) [2]: consistently reduce cocaine self-administration | cocaine abstinence in a clinical setting (humans [9]; doses approved to treat ADHD): often ineffective at improving cocaine abstinence

C[C@H]1CNCCc2ccc(Cl)cc21 [lorcaserin]
weight loss (obese adults): modest, but sustained weight loss | selectivity for 5-HT2C over 5-HT2B receptors [10, 12]: ~100 fold | selectivity for (5-HT)2C versus 5-HT2B receptor ([10]; in vitro testing): 100 × | effect on PR responding for cocaine (reinforcing effectiveness of cocaine) [5]: inhibited responding in a dose-dependent manner; also recorded: dose-dependently decreases the reinforcing effectiveness of cocaine | sensitivity of females relative to males ([5]; PR schedule, 2 male and 2 female monkeys, females more sensitive): ~3 fold | head-twitches (5-HT2A receptor): produces 5-HT2A receptor-mediated head-twitches | effectiveness of cocaine to reinstate extinguished responding for cocaine [6]: dose-dependently decreases | cocaine self-administration under fixed ratio and PR schedules (earlier report of the inventors) ([7]; acute administration): dose-dependently inhibits cocaine self-administration | effectiveness on cocaine self-administration with daily dosing [7]: retain their effectiveness to reduce cocaine self-administration | persistence of anti-cocaine effects ([7]; repeated (daily) treatment): at least 14 days | cardiovascular complications [8]: devoid of serious cardiovascular complications | subjective effects of supra-therapeutic doses (recreational drug users): subjective ratings of “high”, “good drug effects” and “hallucination” | selectivity for 5-HT2C over 5-HT2A receptors [11, 12]: ~20 fold | selectivity over the 5-HT2A receptor ([11]; in vitro testing): 17 ×

Clc1cccc(N2CCNCC2)c1 [mCPP, meta-chlorophenylpiperazine]
cocaine self-administration and/or reinstatement (5-HT2C receptors): decrease cocaine self-administration and/or inhibit the reinstatement of a response previously reinforced by cocaine
